Tested on: Crude diglycosidase
Experiment: Examination of pH in the conversion into isoflavone aglycons by diglycosidase using soybean materials
Format: biochemical, Penicillium multicolor IAM7153
Parameters: Decomposition efficiency of genistin family in soymilk / Decomposition efficiency of genistin family in defatted soybean / Decomposition efficiency of daidzin family in defatted soybean: concentration or dose not given beside the values
Conditions: for Decomposition efficiency of genistin family in roasted soy flour: 55° C.
In short: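 Conversion of glycosides to isoflavone aglycons was followed by HPLC after crude diglycosidase (1.88 AU/mL enzyme solution) acted at 55° C for up to 6 h on four soy materials, 50 mg each, held at pH 2–11.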

[1] = pH4.8, heat treatment of enzyme: no, reaction time 0 h
[2] = pH4.8, heat treatment of enzyme: no, reaction time 1 h
[3] = pH4.8, heat treatment of enzyme: no, reaction time 3 h
[4] = pH4.8, heat treatment of enzyme: no, reaction time 6 h
[5] = pH4.8, heat treatment of enzyme: yes, reaction time 6 h
[6] = pH6.6, heat treatment of enzyme: no, reaction time 0 h
[7] = pH6.6, heat treatment of enzyme: no, reaction time 1 h
[8] = pH6.6, heat treatment of enzyme: no, reaction time 3 h
[9] = pH6.6, heat treatment of enzyme: no, reaction time 6 h
[10] = pH6.6, heat treatment of enzyme: yes, reaction time 6 h

O=c1c(-c2ccc(O)cc2)coc2cc(O[C@@H]3O[C@H](CO)[C@@H](O)[C@H](O)[C@H]3O)cc(O)c12 [genistin]
Decomposition efficiency of genistin family in concentrated soybean protein (pH1.6, heat treatment of enzyme: no, reaction time 0 h): 49.7%
Decomposition efficiency of genistin family in concentrated soybean protein (pH1.6, heat treatment of enzyme: no, reaction time 1 h): 50.2%
Decomposition efficiency of genistin family in concentrated soybean protein (pH1.6, heat treatment of enzyme: no, reaction time 3 h): 51.6%
Decomposition efficiency of genistin family in concentrated soybean protein (pH1.6, heat treatment of enzyme: no, reaction time 6 h): 53.3%
Decomposition efficiency of genistin family in concentrated soybean protein (pH1.6, heat treatment of enzyme: yes, reaction time 6 h): 54.4%
Decomposition efficiency of genistin family in roasted soy flour (pH2, heat treatment of enzyme no, reaction time 0 h): 50.0
Decomposition efficiency of genistin family in roasted soy flour (pH2, heat treatment of enzyme no, reaction time 1 h): 49.7
Decomposition efficiency of genistin family in roasted soy flour (pH2, heat treatment of enzyme no, reaction time 3 h): 50.7
Decomposition efficiency of genistin family in roasted soy flour (pH2, heat treatment of enzyme no, reaction time 6 h): 52.7
Decomposition efficiency of genistin family in roasted soy flour (pH2, heat treatment of enzyme yes, reaction time 6 h): 52.8
Decomposition efficiency of genistin family in soymilk (pH2.3, heat treatment of enzyme: no, reaction time 0 h): 31.5%
Decomposition efficiency of genistin family in soymilk (pH2.3, heat treatment of enzyme: no, reaction time 1 h): not detected
Decomposition efficiency of genistin family in soymilk (pH2.3, heat treatment of enzyme: no, reaction time 3 h): not detected
Decomposition efficiency of genistin family in soymilk (pH2.3, heat treatment of enzyme: no, reaction time 6 h): not detected
Decomposition efficiency of genistin family in soymilk (pH2.3, heat treatment of enzyme: yes, reaction time 6 h): 35.5%
Decomposition efficiency of genistin family in defatted soybean (pH2.6, heat treatment of enzyme: no, reaction time 0 h): 42.0%
Decomposition efficiency of genistin family in defatted soybean (pH2.6, heat treatment of enzyme: no, reaction time 1 h): 36.3%
Decomposition efficiency of genistin family in defatted soybean (pH2.6, heat treatment of enzyme: no, reaction time 3 h): 20.3%
Decomposition efficiency of genistin family in defatted soybean (pH2.6, heat treatment of enzyme: no, reaction time 6 h): 20.1%
Decomposition efficiency of genistin family in defatted soybean (pH2.6, heat treatment of enzyme: yes, reaction time 6 h): 44.3%
Decomposition efficiency of genistin family in concentrated soybean protein (pH2.7, heat treatment of enzyme: no, reaction time 0 h): 49.7%
Decomposition efficiency of genistin family in concentrated soybean protein (pH2.7, heat treatment of enzyme: no, reaction time 1 h): 23.1%
Decomposition efficiency of genistin family in concentrated soybean protein (pH2.7, heat treatment of enzyme: no, reaction time 3 h): 22.1%
Decomposition efficiency of genistin family in concentrated soybean protein (pH2.7, heat treatment of enzyme: no, reaction time 6 h): 17.5%
Decomposition efficiency of genistin family in concentrated soybean protein (pH2.7, heat treatment of enzyme: yes, reaction time 6 h): 50.5%
Decomposition efficiency of genistin family in roasted soy flour (pH3, heat treatment of enzyme no, reaction time 0 h): 50.0
Decomposition efficiency of genistin family in roasted soy flour (pH3, heat treatment of enzyme no, reaction time 1 h): 3.4
Decomposition efficiency of genistin family in roasted soy flour (pH3, heat treatment of enzyme no, reaction time 3 h): not detected
Decomposition efficiency of genistin family in roasted soy flour (pH3, heat treatment of enzyme no, reaction time 6 h): not detected
Decomposition efficiency of genistin family in roasted soy flour (pH3, heat treatment of enzyme yes, reaction time 6 h): 49.9
Decomposition efficiency of genistin family in defatted soybean (pH3.4, heat treatment of enzyme: no, reaction time 0 h): 42.0%
Decomposition efficiency of genistin family in defatted soybean (pH3.4, heat treatment of enzyme: no, reaction time 1 h): not detected
Decomposition efficiency of genistin family in defatted soybean (pH3.4, heat treatment of enzyme: no, reaction time 3 h): not detected
Decomposition efficiency of genistin family in defatted soybean (pH3.4, heat treatment of enzyme: no, reaction time 6 h): not detected
Decomposition efficiency of genistin family in defatted soybean (pH3.4, heat treatment of enzyme: yes, reaction time 6 h): 44.3%
Decomposition efficiency of genistin family in soymilk (pH3.5, heat treatment of enzyme: no, reaction time 0 h): 31.5%
Decomposition efficiency of genistin family in soymilk (pH3.5, heat treatment of enzyme: no, reaction time 1 h): not detected
Decomposition efficiency of genistin family in soymilk (pH3.5, heat treatment of enzyme: no, reaction time 3 h): not detected
Decomposition efficiency of genistin family in soymilk (pH3.5, heat treatment of enzyme: no, reaction time 6 h): not detected
Decomposition efficiency of genistin family in soymilk (pH3.5, heat treatment of enzyme: yes, reaction time 6 h): 37.0%
Decomposition efficiency of genistin family in concentrated soybean protein (pH3.7, heat treatment of enzyme: no, reaction time 0 h): 50.7%
Decomposition efficiency of genistin family in concentrated soybean protein (pH3.7, heat treatment of enzyme: no, reaction time 1 h): not detected
Decomposition efficiency of genistin family in concentrated soybean protein (pH3.7, heat treatment of enzyme: no, reaction time 3 h): not detected
Decomposition efficiency of genistin family in concentrated soybean protein (pH3.7, heat treatment of enzyme: no, reaction time 6 h): not detected
Decomposition efficiency of genistin family in concentrated soybean protein (pH3.7, heat treatment of enzyme: yes, reaction time 6 h): 50.6%
Decomposition efficiency of genistin family in roasted soy flour (pH4, heat treatment of enzyme no, reaction time 0 h): 49.9
Decomposition efficiency of genistin family in roasted soy flour (pH4, heat treatment of enzyme no, reaction time 1 h): not detected
Decomposition efficiency of genistin family in roasted soy flour (pH4, heat treatment of enzyme no, reaction time 3 h): not detected
Decomposition efficiency of genistin family in roasted soy flour (pH4, heat treatment of enzyme no, reaction time 6 h): not detected
Decomposition efficiency of genistin family in roasted soy flour (pH4, heat treatment of enzyme yes, reaction time 6 h): 50.2
Decomposition efficiency of genistin family in defatted soybean [1]: 40.5%
Decomposition efficiency of genistin family in soymilk [1]: 31.7%
Decomposition efficiency of genistin family in defatted soybean [2]: not detected
Decomposition efficiency of genistin family in soymilk [2]: not detected
Decomposition efficiency of genistin family in defatted soybean [3]: not detected
Decomposition efficiency of genistin family in soymilk [3]: not detected
Decomposition efficiency of genistin family in defatted soybean [4]: not detected
Decomposition efficiency of genistin family in soymilk [4]: not detected
Decomposition efficiency of genistin family in defatted soybean [5]: 31.8%
Decomposition efficiency of genistin family in soymilk [5]: 37.8%
Decomposition efficiency of genistin family in roasted soy flour (pH5, heat treatment of enzyme no, reaction time 0 h): 49.9
Decomposition efficiency of genistin family in roasted soy flour (pH5, heat treatment of enzyme no, reaction time 1 h): not detected
Decomposition efficiency of genistin family in roasted soy flour (pH5, heat treatment of enzyme no, reaction time 3 h): not detected
Decomposition efficiency of genistin family in roasted soy flour (pH5, heat treatment of enzyme no, reaction time 6 h): not detected
Decomposition efficiency of genistin family in roasted soy flour (pH5, heat treatment of enzyme yes, reaction time 6 h): 52.6
Decomposition efficiency of genistin family in concentrated soybean protein (pH5.1, heat treatment of enzyme: no, reaction time 0 h): 50.7%
Decomposition efficiency of genistin family in concentrated soybean protein (pH5.1, heat treatment of enzyme: no, reaction time 1 h): not detected
Decomposition efficiency of genistin family in concentrated soybean protein (pH5.1, heat treatment of enzyme: no, reaction time 3 h): not detected
Decomposition efficiency of genistin family in concentrated soybean protein (pH5.1, heat treatment of enzyme: no, reaction time 6 h): not detected
Decomposition efficiency of genistin family in concentrated soybean protein (pH5.1, heat treatment of enzyme: yes, reaction time 6 h): 51.4%
Decomposition efficiency of genistin family in defatted soybean (pH5.4, heat treatment of enzyme: no, reaction time 0 h): 40.5%
Decomposition efficiency of genistin family in defatted soybean (pH5.4, heat treatment of enzyme: no, reaction time 1 h): not detected
Decomposition efficiency of genistin family in defatted soybean (pH5.4, heat treatment of enzyme: no, reaction time 3 h): not detected
Decomposition efficiency of genistin family in defatted soybean (pH5.4, heat treatment of enzyme: no, reaction time 6 h): not detected
Decomposition efficiency of genistin family in defatted soybean (pH5.4, heat treatment of enzyme: yes, reaction time 6 h): 6.2%
Decomposition efficiency of genistin family in soymilk (pH6.2, heat treatment of enzyme: no, reaction time 0 h): 31.7%
Decomposition efficiency of genistin family in soymilk (pH6.2, heat treatment of enzyme: no, reaction time 1 h): not detected
Decomposition efficiency of genistin family in soymilk (pH6.2, heat treatment of enzyme: no, reaction time 3 h): not detected
Decomposition efficiency of genistin family in soymilk (pH6.2, heat treatment of enzyme: no, reaction time 6 h): not detected
Decomposition efficiency of genistin family in soymilk (pH6.2, heat treatment of enzyme: yes, reaction time 6 h): 38.3%
Decomposition efficiency of genistin family in roasted soy flour (pH6.5, heat treatment of enzyme no, reaction time 0 h): 49.4
Decomposition efficiency of genistin family in roasted soy flour (pH6.5, heat treatment of enzyme no, reaction time 1 h): not detected
Decomposition efficiency of genistin family in roasted soy flour (pH6.5, heat treatment of enzyme no, reaction time 3 h): not detected
Decomposition efficiency of genistin family in roasted soy flour (pH6.5, heat treatment of enzyme no, reaction time 6 h): not detected
Decomposition efficiency of genistin family in roasted soy flour (pH6.5, heat treatment of enzyme yes, reaction time 6 h): 54.8
Decomposition efficiency of genistin family in concentrated soybean protein [6]: 50.4%
Decomposition efficiency of genistin family in defatted soybean [6]: 39.2%
Decomposition efficiency of genistin family in concentrated soybean protein [7]: 13.9%
Decomposition efficiency of genistin family in defatted soybean [7]: not detected
Decomposition efficiency of genistin family in concentrated soybean protein [8]: 3.8%
Decomposition efficiency of genistin family in defatted soybean [8]: not detected
Decomposition efficiency of genistin family in concentrated soybean protein [9]: 1.7%
Decomposition efficiency of genistin family in defatted soybean [9]: not detected
Decomposition efficiency of genistin family in concentrated soybean protein [10]: 53.2%
Decomposition efficiency of genistin family in defatted soybean [10]: 7.7%
Decomposition efficiency of genistin family in soymilk (pH7.2, heat treatment of enzyme: no, reaction time 0 h): 31.2%
Decomposition efficiency of genistin family in soymilk (pH7.2, heat treatment of enzyme: no, reaction time 1 h): not detected
Decomposition efficiency of genistin family in soymilk (pH7.2, heat treatment of enzyme: no, reaction time 3 h): not detected
Decomposition efficiency of genistin family in soymilk (pH7.2, heat treatment of enzyme: no, reaction time 6 h): not detected
Decomposition efficiency of genistin family in soymilk (pH7.2, heat treatment of enzyme: yes, reaction time 6 h): 38.9%
Decomposition efficiency of genistin family in defatted soybean (pH7.8, heat treatment of enzyme: no, reaction time 0 h): 40.4%
Decomposition efficiency of genistin family in defatted soybean (pH7.8, heat treatment of enzyme: no, reaction time 1 h): 15.7%
Decomposition efficiency of genistin family in defatted soybean (pH7.8, heat treatment of enzyme: no, reaction time 3 h): 12.3%
Decomposition efficiency of genistin family in defatted soybean (pH7.8, heat treatment of enzyme: no, reaction time 6 h): 11.4%
Decomposition efficiency of genistin family in defatted soybean (pH7.8, heat treatment of enzyme: yes, reaction time 6 h): 37.5%
Decomposition efficiency of genistin family in roasted soy flour (pH8.5, heat treatment of enzyme no, reaction time 0 h): 55.8
Decomposition efficiency of genistin family in roasted soy flour (pH8.5, heat treatment of enzyme no, reaction time 1 h): 28.7
Decomposition efficiency of genistin family in roasted soy flour (pH8.5, heat treatment of enzyme no, reaction time 3 h): 19.2
Decomposition efficiency of genistin family in roasted soy flour (pH8.5, heat treatment of enzyme no, reaction time 6 h): 14.5
Decomposition efficiency of genistin family in roasted soy flour (pH8.5, heat treatment of enzyme yes, reaction time 6 h): 59.5
Decomposition efficiency of genistin family in concentrated soybean protein (pH8.6, heat treatment of enzyme: no, reaction time 0 h): 53.8%
Decomposition efficiency of genistin family in concentrated soybean protein (pH8.6, heat treatment of enzyme: no, reaction time 1 h): 50.4%
Decomposition efficiency of genistin family in concentrated soybean protein (pH8.6, heat treatment of enzyme: no, reaction time 3 h): 45.1%
Decomposition efficiency of genistin family in concentrated soybean protein (pH8.6, heat treatment of enzyme: no, reaction time 6 h): 36.3%
Decomposition efficiency of genistin family in concentrated soybean protein (pH8.6, heat treatment of enzyme: yes, reaction time 6 h): 56.2%
Decomposition efficiency of genistin family in soymilk (pH11.6, heat treatment of enzyme: no, reaction time 0 h): 34.8%
Decomposition efficiency of genistin family in soymilk (pH11.6, heat treatment of enzyme: no, reaction time 1 h): not detected
Decomposition efficiency of genistin family in soymilk (pH11.6, heat treatment of enzyme: no, reaction time 3 h): not detected
Decomposition efficiency of genistin family in soymilk (pH11.6, heat treatment of enzyme: no, reaction time 6 h): not detected
Decomposition efficiency of genistin family in soymilk (pH11.6, heat treatment of enzyme: yes, reaction time 6 h): 41.3%

From US7118895B2, “Process for producing aglycon by using diglycosidase and flavor-improved food containing the aglycon and converting agent to be used in the process” (Amano Enzyme Inc., priority 2000, dated 2006)
